Results reported in publication PMC12749626, “Expediting hit-to-lead progression in drug discovery through reaction prediction and multi-dimensional optimization” (Nature Communications, 2025).
Values after ≈ are worked out from the molar mass of the structure shown.

Columns and labels:
μ OPIOID REC. = μ OPIOID REC. (Homo sapiens, UniProt P35372); assay: biochemical; conditions: read-out: μ OPIOID REC. percent activity or inhibition compared to the assay reference
α2A-ADRENOCEPTOR = α2A-ADRENOCEPTOR (Homo sapiens, UniProt P08913); assay: biochemical; conditions: read-out: α2A-ADRENOCEPTOR percent activity or inhibition compared to the assay reference
Hepatocyte clearance = conditions: for hepatocyte CLint at 1 µM: human, hepatocytes
CYP2C9 = CYP2C9 (Homo sapiens, UniProt P11712); assay: Cytochrome P450 inhibition assay, CYP2C9; conditions: liver microsomes
HIV-1 PROTEASE = HIV-1 PROTEASE (Human immunodeficiency virus type 1 group M subtype B, UniProt P04585); assay: biochemical; conditions: read-out: HIV-1 PROTEASE percent activity or inhibition compared to the assay reference
ADENOSINE A1 REC. = ADENOSINE A1 REC. (Homo sapiens, UniProt P30542); assay: biochemical; conditions: read-out: ADENOSINE A1 REC. percent activity or inhibition compared to the assay reference
HISTAMINE H1 REC. = HISTAMINE H1 REC. (Homo sapiens, UniProt P35367); assay: biochemical; conditions: read-out: HISTAMINE H1 REC. percent activity or inhibition compared to the assay reference
CYP2D6 = CYP2D6 (Homo sapiens, UniProt P10635); assay: Cytochrome P450 inhibition assay, CYP2D6; conditions: liver microsomes
ANDROGEN REC. = ANDROGEN REC. (Homo sapiens, UniProt P10275); assay: biochemical; conditions: read-out: ANDROGEN REC. percent activity or inhibition compared to the assay reference
5HT3 = 5HT3 (Homo sapiens, UniProt P46098); assay: biochemical; conditions: read-out: 5HT3 percent activity or inhibition compared to the assay reference
DOPAMINE D1 REC. [1] = target: T1, DOPAMINE D1 REC. (Homo sapiens, UniProt P21728); assay: biochemical; conditions: read-out: DOPAMINE D1 REC. percent activity or inhibition compared to the assay reference
CHOLECYSTOKININ 1 REC. [2] = target: T2, CHOLECYSTOKININ 1 REC. (Homo sapiens, UniProt P32238); assay: biochemical; conditions: read-out: CHOLECYSTOKININ 1 REC. percent activity or inhibition compared to the assay reference
β1-ADRENOCEPTOR = β1-ADRENOCEPTOR (Homo sapiens, UniProt P08588); assay: biochemical; conditions: read-out: β1-ADRENOCEPTOR percent activity or inhibition compared to the assay reference
[3] = Microsomal clearance, human microsomes
GLUC[…]. = GLUC[…]. (Homo sapiens, UniProt P04150); assay: biochemical; conditions: read-out: GLUC[…]. percent activity or inhibition compared to the assay reference
ABL1 = ABL1 (Homo sapiens, UniProt P00519); assay: biochemical; conditions: read-out: ABL1 percent activity or inhibition compared to the assay reference
CYP3A4 = CYP3A4 (Homo sapiens, UniProt P08684); assay: Cytochrome P450 inhibition assay, CYP3A4; conditions: liver microsomes
MONOAMINE OXIDASE-A = MONOAMINE OXIDASE-A (Homo sapiens, UniProt P21397); assay: biochemical; conditions: read-out: MONOAMINE OXIDASE-A percent activity or inhibition compared to the assay reference
5HT1A = 5HT1A (Homo sapiens, UniProt P08908); assay: biochemical; conditions: read-out: 5HT1A percent activity or inhibition compared to the assay reference
5HT2A = 5HT2A (Homo sapiens, UniProt P28223); assay: biochemical; conditions: read-out: 5HT2A percent activity or inhibition compared to the assay reference
ZAP70 = ZAP70 (Homo sapiens, UniProt P43403); assay: biochemical; conditions: read-out: ZAP70 percent activity or inhibition compared to the assay reference
Solubility in 0.05M PO4- = format: physicochemical; conditions: for solubility: 0.05 M phosphate buffer, aqueous buffer
XANTHINE OXIDASE = XANTHINE OXIDASE (Bos taurus, UniProt P80457); assay: biochemical; conditions: read-out: XANTHINE OXIDASE percent activity or inhibition compared to the assay reference
PHOSPHODIESTERASE 3B = PHOSPHODIESTERASE 3B (Homo sapiens, UniProt Q13370); assay: biochemical; conditions: read-out: PHOSPHODIESTERASE 3B percent activity or inhibition compared to the assay reference
GSK-3B = GSK-3B (Homo sapiens, UniProt P49841); assay: biochemical; conditions: read-out: GSK-3B percent activity or inhibition compared to the assay reference
[4] = Microsomal clearance, mouse microsomes
CA2+ CHANNEL (L-TYPE) = conditions: 10 uM; n=2
Solubility in FESSIF = format: physicochemical
MUSCULAR NICOTINIC REC. = conditions: 10 uM; n=2
NEURONAL NICOTINIC REC. = conditions: 10 uM; n=2
DOPAMINE D1 REC. [5] = target: T1, DOPAMINE D1 REC.; conditions: 10 uM; n=2
[…]. M1 = […]. M1 (Homo sapiens, UniProt P11229); conditions: 10 uM; n=2
CHOLECYSTOKININ 1 REC. [6] = target: T2, CHOLECYSTOKININ 1 REC.; conditions: 10 uM; n=2

GSK-3B, sequence (P49841 whole entry): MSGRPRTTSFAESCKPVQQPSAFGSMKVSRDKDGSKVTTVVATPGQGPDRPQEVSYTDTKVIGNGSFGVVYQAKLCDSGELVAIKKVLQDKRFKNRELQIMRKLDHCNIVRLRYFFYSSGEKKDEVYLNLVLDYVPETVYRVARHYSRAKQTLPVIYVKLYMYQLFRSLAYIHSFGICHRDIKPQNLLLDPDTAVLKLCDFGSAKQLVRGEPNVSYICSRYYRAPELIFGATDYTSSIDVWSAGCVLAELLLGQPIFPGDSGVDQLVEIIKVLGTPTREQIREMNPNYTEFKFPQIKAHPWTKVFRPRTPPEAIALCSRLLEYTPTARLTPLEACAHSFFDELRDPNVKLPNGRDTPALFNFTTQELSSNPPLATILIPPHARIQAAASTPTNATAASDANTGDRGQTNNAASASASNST
GLUC[…]., sequence (P04150 whole entry): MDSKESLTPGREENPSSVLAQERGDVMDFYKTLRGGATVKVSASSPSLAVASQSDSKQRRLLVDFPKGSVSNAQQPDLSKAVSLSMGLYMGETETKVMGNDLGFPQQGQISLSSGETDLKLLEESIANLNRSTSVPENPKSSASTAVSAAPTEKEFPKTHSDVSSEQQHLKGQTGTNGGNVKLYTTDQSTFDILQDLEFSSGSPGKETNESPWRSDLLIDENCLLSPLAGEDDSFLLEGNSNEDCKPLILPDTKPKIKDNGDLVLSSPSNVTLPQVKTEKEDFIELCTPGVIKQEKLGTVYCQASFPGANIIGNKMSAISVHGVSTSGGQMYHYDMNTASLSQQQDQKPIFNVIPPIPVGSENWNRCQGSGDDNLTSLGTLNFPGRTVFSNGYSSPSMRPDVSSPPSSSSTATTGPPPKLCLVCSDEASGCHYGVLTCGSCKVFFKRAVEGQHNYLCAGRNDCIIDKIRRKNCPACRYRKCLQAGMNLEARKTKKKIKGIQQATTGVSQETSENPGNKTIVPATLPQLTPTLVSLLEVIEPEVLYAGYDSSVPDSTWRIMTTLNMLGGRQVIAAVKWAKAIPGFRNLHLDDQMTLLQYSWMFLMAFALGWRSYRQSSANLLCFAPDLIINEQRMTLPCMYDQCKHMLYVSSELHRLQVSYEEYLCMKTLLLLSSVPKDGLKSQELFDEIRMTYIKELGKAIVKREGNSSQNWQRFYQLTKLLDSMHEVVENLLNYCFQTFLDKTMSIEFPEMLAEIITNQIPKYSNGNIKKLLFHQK
5HT2A, sequence (P28223 whole entry): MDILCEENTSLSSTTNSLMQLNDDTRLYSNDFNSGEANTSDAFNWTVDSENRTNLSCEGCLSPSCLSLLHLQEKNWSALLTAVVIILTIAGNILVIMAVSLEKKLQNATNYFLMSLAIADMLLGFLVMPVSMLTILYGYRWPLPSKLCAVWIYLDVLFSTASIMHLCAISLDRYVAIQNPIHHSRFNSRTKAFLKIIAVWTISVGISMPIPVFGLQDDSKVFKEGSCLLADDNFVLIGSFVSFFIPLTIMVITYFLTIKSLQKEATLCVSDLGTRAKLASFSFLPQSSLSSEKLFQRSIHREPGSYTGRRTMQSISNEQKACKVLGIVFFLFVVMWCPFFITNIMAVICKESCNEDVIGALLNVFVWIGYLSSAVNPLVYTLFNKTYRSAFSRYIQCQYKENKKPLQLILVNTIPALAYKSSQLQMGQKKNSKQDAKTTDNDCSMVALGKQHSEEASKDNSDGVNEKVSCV
ABL1, sequence (P00519 whole entry): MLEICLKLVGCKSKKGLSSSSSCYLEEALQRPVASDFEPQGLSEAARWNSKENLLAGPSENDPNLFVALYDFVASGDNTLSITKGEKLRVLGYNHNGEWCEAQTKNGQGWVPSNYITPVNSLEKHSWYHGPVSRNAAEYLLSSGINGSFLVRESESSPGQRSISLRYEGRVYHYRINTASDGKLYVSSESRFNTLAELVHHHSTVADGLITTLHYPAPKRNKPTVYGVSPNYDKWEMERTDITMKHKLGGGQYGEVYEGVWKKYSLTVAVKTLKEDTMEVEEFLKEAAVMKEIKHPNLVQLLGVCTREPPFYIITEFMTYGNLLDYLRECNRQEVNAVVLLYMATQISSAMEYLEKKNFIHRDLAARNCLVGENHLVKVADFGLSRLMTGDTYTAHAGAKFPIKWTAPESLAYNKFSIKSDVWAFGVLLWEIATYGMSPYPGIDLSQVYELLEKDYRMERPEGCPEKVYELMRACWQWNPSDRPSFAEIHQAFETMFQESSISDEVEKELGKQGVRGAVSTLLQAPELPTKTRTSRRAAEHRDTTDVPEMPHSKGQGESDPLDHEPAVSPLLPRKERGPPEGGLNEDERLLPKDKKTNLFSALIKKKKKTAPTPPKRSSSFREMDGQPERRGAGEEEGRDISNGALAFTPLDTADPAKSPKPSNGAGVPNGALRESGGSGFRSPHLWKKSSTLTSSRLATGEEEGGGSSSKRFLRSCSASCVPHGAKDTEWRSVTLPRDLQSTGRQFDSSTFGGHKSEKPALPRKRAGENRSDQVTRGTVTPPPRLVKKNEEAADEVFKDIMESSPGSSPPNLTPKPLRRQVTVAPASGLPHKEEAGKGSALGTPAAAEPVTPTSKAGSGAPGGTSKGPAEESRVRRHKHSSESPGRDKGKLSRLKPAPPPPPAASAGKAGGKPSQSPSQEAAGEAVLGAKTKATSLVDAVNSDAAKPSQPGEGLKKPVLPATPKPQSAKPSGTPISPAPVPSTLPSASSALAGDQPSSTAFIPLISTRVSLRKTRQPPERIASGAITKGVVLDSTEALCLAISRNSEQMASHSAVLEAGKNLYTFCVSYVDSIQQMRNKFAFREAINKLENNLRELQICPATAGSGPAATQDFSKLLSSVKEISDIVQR
5HT3, sequence (P46098 24-478): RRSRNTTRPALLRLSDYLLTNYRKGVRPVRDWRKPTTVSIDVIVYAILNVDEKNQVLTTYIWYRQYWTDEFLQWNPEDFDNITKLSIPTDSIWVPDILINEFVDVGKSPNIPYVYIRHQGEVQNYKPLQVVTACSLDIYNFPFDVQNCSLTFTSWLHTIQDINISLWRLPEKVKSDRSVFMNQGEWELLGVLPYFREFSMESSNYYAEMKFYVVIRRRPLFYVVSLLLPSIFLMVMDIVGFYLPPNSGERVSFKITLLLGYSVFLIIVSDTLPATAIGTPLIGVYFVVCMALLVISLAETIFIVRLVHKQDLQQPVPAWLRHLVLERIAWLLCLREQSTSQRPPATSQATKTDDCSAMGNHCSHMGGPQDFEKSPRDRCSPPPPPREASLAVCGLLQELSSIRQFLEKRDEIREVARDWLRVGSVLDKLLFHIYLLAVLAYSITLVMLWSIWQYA
CYP3A4, sequence (P08684 whole entry): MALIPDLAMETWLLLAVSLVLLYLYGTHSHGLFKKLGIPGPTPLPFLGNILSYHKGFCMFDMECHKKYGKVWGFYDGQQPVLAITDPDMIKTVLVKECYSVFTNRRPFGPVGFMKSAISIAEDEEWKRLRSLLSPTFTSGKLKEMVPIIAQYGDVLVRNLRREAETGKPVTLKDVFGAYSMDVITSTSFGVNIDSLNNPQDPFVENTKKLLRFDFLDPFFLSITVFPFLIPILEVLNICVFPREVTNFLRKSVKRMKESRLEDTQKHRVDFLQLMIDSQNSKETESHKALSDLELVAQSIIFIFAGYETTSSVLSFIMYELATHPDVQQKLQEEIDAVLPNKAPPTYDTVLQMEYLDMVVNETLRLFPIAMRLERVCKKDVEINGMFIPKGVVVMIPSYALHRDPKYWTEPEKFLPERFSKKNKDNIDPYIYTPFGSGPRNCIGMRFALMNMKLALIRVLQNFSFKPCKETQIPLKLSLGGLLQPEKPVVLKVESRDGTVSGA
UniProt P08588, sequence (P08588 whole entry): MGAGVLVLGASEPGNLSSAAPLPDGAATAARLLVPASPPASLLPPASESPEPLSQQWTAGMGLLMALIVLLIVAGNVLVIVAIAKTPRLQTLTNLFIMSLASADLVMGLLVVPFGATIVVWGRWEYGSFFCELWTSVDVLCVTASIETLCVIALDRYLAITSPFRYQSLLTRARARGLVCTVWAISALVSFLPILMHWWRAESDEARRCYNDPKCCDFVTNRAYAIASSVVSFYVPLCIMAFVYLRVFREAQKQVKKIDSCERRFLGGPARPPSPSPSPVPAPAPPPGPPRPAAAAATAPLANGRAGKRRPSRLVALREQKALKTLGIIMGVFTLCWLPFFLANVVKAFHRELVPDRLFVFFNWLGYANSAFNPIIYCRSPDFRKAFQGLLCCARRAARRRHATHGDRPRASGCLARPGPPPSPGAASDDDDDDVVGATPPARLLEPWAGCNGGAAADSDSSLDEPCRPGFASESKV
CYP2D6, sequence (P10635 whole entry): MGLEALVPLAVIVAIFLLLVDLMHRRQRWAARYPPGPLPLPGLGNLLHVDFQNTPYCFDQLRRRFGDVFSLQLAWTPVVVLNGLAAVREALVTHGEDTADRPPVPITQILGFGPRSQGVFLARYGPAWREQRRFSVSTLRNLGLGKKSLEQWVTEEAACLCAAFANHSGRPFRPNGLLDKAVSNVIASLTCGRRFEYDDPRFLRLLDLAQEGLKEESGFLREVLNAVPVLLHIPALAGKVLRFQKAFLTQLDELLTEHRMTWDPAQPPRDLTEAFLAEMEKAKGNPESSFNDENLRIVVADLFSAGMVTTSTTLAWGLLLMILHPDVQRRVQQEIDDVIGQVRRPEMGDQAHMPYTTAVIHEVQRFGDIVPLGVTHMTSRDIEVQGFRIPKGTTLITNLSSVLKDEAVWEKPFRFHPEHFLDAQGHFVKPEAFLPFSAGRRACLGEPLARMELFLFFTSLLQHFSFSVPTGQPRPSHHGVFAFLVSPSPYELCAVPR

| SMILES | inhibition at 10 µM (μ OPIOID REC.) | inhibition at 10 µM (α2A-ADRENOCEPTOR) | hepatocyte CLint at 1 µM (Hepatocyte clearance) | CYP2C9 Inhibition (CYP2C9) | inhibition at 10 µM (HIV-1 PROTEASE) | inhibition at 10 µM (ADENOSINE A1 REC.) | inhibition at 10 µM (HISTAMINE H1 REC.) | CYP2D6 Inhibition (CYP2D6) | inhibition at 10 µM (ANDROGEN REC.) | inhibition at 10 µM (5HT3) | inhibition at 10 µM (DOPAMINE D1 REC. [1]) | inhibition at 10 µM (CHOLECYSTOKININ 1 REC. [2]) | inhibition at 10 µM (β1-ADRENOCEPTOR) | microsomal CLint at 1 µM [3] | inhibition at 10 µM (GLUC[…].) | inhibition at 10 µM (ABL1) | CYP3A4 Inhibition (CYP3A4) | inhibition at 10 µM (MONOAMINE OXIDASE-A) | inhibition at 10 µM (5HT1A) | inhibition at 10 µM (5HT2A) | further results |
| --- | --- | --- | --- | --- | --- | --- | --- | --- | --- | --- | --- | --- | --- | --- | --- | --- | --- | --- | --- | --- | --- |
| O=C(c1ccc2nc(-c3cccnc3)oc2c1)N1CCN(c2nc3ccccc3c(=O)[nH]2)CC1 [Compound 17] | 48% | 7% | 7.3 µL/min/1e6 cells | 2% | 11% | 70% | 13% | -24% | 6% | 0% | 3% | -12% | 4% | 10 µL/min/mg | -13% | 2% | 16% | 7% | 1% | 7% | inhibition at 10 µM (ZAP70): -2%; solubility (Solubility in 0.05M PO4-): 4.2 µg/mL (≈ 9.28 µM); inhibition at 10 µM (XANTHINE OXIDASE): 2%; inhibition at 10 µM (PHOSPHODIESTERASE 3B): 2%; inhibition at 10 µM (GSK-3B): -21%; microsomal CLint at 1 µM [4]: 10 µL/min/mg |
| O=C(c1ccc2nc(-c3cnccc3C3CCCC3)oc2c1)N1CCN(c2nc3nc(Cl)ccc3o2)CC1 [Compound 23] | 21% | 3% | 179 µL/min/1e6 cells | 45% | 31% | 24% | 11% | 38% | -10% | -6% | -1% | 9% | 2% | 415 µL/min/mg | -2% | -8% | > 90% | 2% | 11% | 2% | CA2+ CHANNEL (L-TYPE) percent activity or inhibition compared to the assay reference (CA2+ CHANNEL (L-TYPE)): 73%; solubility (Solubility in FESSIF): 1.9 µg/mL (≈ 3.59 µM); MUSCULAR NICOTINIC REC. percent activity or inhibition compared to the assay reference (MUSCULAR NICOTINIC REC.): 0%; inhibition at 10 µM (ZAP70): -27%; solubility (Solubility in 0.05M PO4-): < 0.05 µg/mL; NEURONAL NICOTINIC REC. percent activity or inhibition compared to the assay reference (NEURONAL NICOTINIC REC.): -3%; inhibition at 10 µM (XANTHINE OXIDASE): 6%; inhibition at 10 µM (PHOSPHODIESTERASE 3B): -8%; inhibition at 10 µM (GSK-3B): -20%; microsomal CLint at 1 µM [4]: 176 µL/min/mg |
| O=C(c1ccc2nc(-c3cnccc3C3(C4CCC4)CC3)oc2c1)N1CCN(c2nc3nc(Cl)ccc3o2)CC1 [Compound 27] |  |  |  | 73% |  |  |  | 79% |  |  |  |  |  |  |  |  | > 90% |  |  |  | DOPAMINE D1 REC. percent activity or inhibition compared to the assay reference (DOPAMINE D1 REC. [5]): -2%; Hepatocyte clearance (Hepatocyte clearance; cryopreserved hepatocytes of human origin, 1 µM compound): 101.0 µL/min/10^6 cells; CA2+ CHANNEL (L-TYPE) percent activity or inhibition compared to the assay reference (CA2+ CHANNEL (L-TYPE)): 90%; […]. M1 percent activity or inhibition compared to the assay reference ([…]. M1): 52%; MUSCULAR NICOTINIC REC. percent activity or inhibition compared to the assay reference (MUSCULAR NICOTINIC REC.): 2%; Solubility in 0.05M PO4- (Solubility in 0.05M PO4-): < 0.6 µg/mL; NEURONAL NICOTINIC REC. percent activity or inhibition compared to the assay reference (NEURONAL NICOTINIC REC.): -8%; CHOLECYSTOKININ 1 REC. percent activity or inhibition compared to the assay reference (CHOLECYSTOKININ 1 REC. [6]): 4% |
| O=C(c1ccc2nc(-c3cnccc3C3CCCC3)oc2c1)N1CC2(CC(n3cnc(C4CC4)n3)C2)C1 [Compound 29] | 30% | 18% | 181 µL/min/1e6 cells | 70% | 31% | 9% | 18% | 34% | 7% | -2% | 7% | 8% | 7% | 425 µL/min/mg | -6% | -5% | 84% | 0% | 19% | 10% | CA2+ CHANNEL (L-TYPE) percent activity or inhibition compared to the assay reference (CA2+ CHANNEL (L-TYPE)): 32%; solubility (Solubility in FESSIF): 25 µg/mL (≈ 50.5 µM); MUSCULAR NICOTINIC REC. percent activity or inhibition compared to the assay reference (MUSCULAR NICOTINIC REC.): 24%; inhibition at 10 µM (ZAP70): 5%; solubility (Solubility in 0.05M PO4-): < 0.05 µg/mL; NEURONAL NICOTINIC REC. percent activity or inhibition compared to the assay reference (NEURONAL NICOTINIC REC.): 6%; inhibition at 10 µM (XANTHINE OXIDASE): 3%; inhibition at 10 µM (PHOSPHODIESTERASE 3B): 6%; inhibition at 10 µM (GSK-3B): -19%; microsomal CLint at 1 µM [4]: 536 µL/min/mg |
